{"source": "patent US20110040170A1", "about": "“ENDOSCOPIC IMAGING PHOTODYNAMIC THERAPY SYSTEM AND METHODS OF USE” (YEDA RESEARCH AND DEVELOPMENT CO., LTD., priority 2008, published 2011)", "key": {"[1]": {"test_system": "extrauterine pregnancy", "details": "selected patients (mass less than 4 cm, no fetal heart beat, low β-hCG); cited from earlier work"}, "[2]": {"details": "rat", "description": "(vi) Post PDT fertility assessment. Treated rats were allowed to reach parturition and pup weaning (P21). Fertile males were then introduced into the cages and rats were allowed to mate until pregnancy could be verified by daily vaginal smears and palpation. Pregnancy in both uterine horns was verified by magnetic resonance imaging (MRI) and/or by animal sacrifice and macroscopic examination."}, "[3]": {"test_system": "uterus", "test": "Histological analysis of post-PDT uteri for long-term damage", "type": "in vivo, Wistar rats", "procedure": "(viii) Histology. Following animal sacrifice, the abdomen was surgically opened, the uterus was tied-off at the cervix, removed and placed in Carnoy's fixative (6:3:1 ethanol, chloroform and acetic acid, by vol.), or Tris-buffered Zn fixative (2.8 mM calcium acetate, 22.8 mM zinc acetate, and 36.7 mM zinc chloride in 0.1M Tris buffer, pH 7.4) for 48-72 h. Fixed tissue samples were placed in 70% ethanol, paraffin embedded and slides were prepared. Slides were stained with hematoxylin and eosin (H&E) Immunohistochemical staining of the specific cell markers was done using the following antibodies: sheep anti-von Willebrand Factor (vWF)] (Serotec, Oxford, UK), mouse anti-pancytokeratin (clone AE1/AE3, Zymed, San-Francisco, USA) and mouse anti-human smooth muscle actin (SMA) (a SMC marker) (clone 1A4, Serotec, Oxford, UK).\nFollowing verification of the functional integrity of post-PDT rat uteri, histological analysis was conducted in order to identify possible long-term damage resulting from the treatment. For this purpose, uteri in post-PDT and control manipulated rats were examined approximately 10 days after parturition (17-18 days after treatment). The respective uteri were stained by standard H&E (FIGS. 8B and 8F) as well as by anti-SMA antibody (a SMC marker, indicative of uterine wall integrity) (FIGS. 8C and 8G), anti-pan-cytokeratin antibody (an epithelial cell marker, indicative of endometrial integrity and absence of adhesions) (FIGS. 8D and 8H) and for vWF factor (an endothelial cell marker, illustrating blood vessel integrity) (FIGS. 8E and 8I). Uteri featured mild to moderate organizing hemorrhages in the endometrium and mesometrium, typical of post-gravid uteri (uteri after parturition). The only type of lesion found was the presence of a low number of hemosiderin-laden macrophages (siderophages) in the endometrium (where such a presence is normal) and in the mesometrium. This finding (siderophages) was highest in the DC uterus and milder in the post PDT uterus."}, "[4]": {"test_system": "feto-placental unit", "test": "Histological analysis of feto-placental units and adjacent uterus after in utero PDT", "type": "in vivo, Wistar rats", "details": "E16", "procedure": "(iv) In vivo PDT protocol. A pregnant rat (E14) was anesthetized by isoflurane inhalation using the IMPAC6 system (VetEquip Inc., Pleasanton, Calif., USA) and placed on its back; the lower abdomen was shaved, washed with 70% ethanol and draped with sterile gauze. A midline incision (approximately 2 cm in length) in the lower abdomen was performed by cutting the skin and abdominal-muscle layers separately. Using round forceps, the uterus was gently drawn out from the abdominal cavity and placed on the gauze. The exposed uterus was continuously irrigated with sterile 0.9% NaCl solution during the procedure (for layout, see FIGS. 5A, 5B). One embryo was randomly selected for treatment and positioned with the placenta facing up. The laser beam was then directed to the exposed placental pole and the beam positioned for subsequent therapeutic illumination (6 mm light spot diameter) using the built-in visible (630 nm, 3 mW) aiming beam. No shielding of neighboring embryos was required. The photosensitizer PMRDA (50 μg/30 μl sterile saline) was delivered by trans-uterine injection (30G, 0.3 ml, insulin syringe) into the placenta. Following a drug/light time interval (DLTI) of 120 sec, illumination (100 mW/cm^2) was delivered (300 sec) to the placenta in a trans-uterine manner from above, perpendicular to the uterus (FIG. 5A). Upon completion of the PDT protocol, the uterus was eased back into the abdominal cavity. The abdominal facia was sutured using sterile 4-0 braided silk thread and the skin was clipped using 9 mm surgical clips. Anesthesia was discontinued and the rat was placed in a cage and closely monitored for at least 48 h. Animals received analgesia (Oxycod®, 6 ml/l) in their drinking water for at least 48 h. Controls: Dark control (DC): placental administration of photosensitizer without illumination. Light control (LC): placental sham injection of sterile vehicle (saline), followed by illumination with the respective light dose. Untreated control (UN): all untreated fetoplacental units in a treated rat.\n(viii) Histology. […]"}, "[5]": {"test_system": "feto-placental unit", "test": "In vivo placental PDT of a single feto-placental unit in the pregnant rat", "procedure": "Materials and Methods (i) Animals. Pregnant 10-week old female Wistar rats (litter sizes of 10±2) (Harlan Laboratories, Rehovot, Israel) were delivered to the lab on embryonic day 7-12 (E7-E12) and allowed acclimatization of at least 48 h. All animal protocols were approved by the Weizmann Institutional Animal Care and Use Committee (IACUC).\n(ii) Photosensitizer. Palladium 3^1-oxo-15 -methoxycarbonylmethylrhodobacterio-chlorin-13^1,17^3-di(2-N2-dimethylaminoethyl) amide (PMRDA), a water-soluble positively charged Pd-bacteriochlorophyll derivative disclosed in WO 2005/120573, was either synthesized in the inventor's laboratory by known methods or kindly provided by Steba Laboratories Ltd. (Israel), and used as a photosensitizer. The PMRDA was obtained as powder and kept under Argon (Ar) at −20° C. in the dark. Thereafter it was dissolved in methanol (MeOH) and, following spectrophotometric determination of concentration, was divided into aliquots, dried under Ar and kept at −20° C. in the dark until use.\n(iii) Light source. A 1W 755 nm laser (CeramOptec, Bonn, Germany) was used. Light was delivered via a diffuser tipped optic fiber (Medlight S.A., Ecublens, Switzerland).\n(iv) In vivo PDT protocol. A pregnant rat (E14) was anesthetized by isoflurane inhalation using the IMPAC6 system (VetEquip Inc., Pleasanton, Calif., USA) and placed on its back; the lower abdomen was shaved, washed with 70% ethanol and draped with sterile gauze. A midline incision (approximately 2 cm in length) in the lower abdomen was performed by cutting the skin and abdominal-muscle layers separately. Using round forceps, the uterus was gently drawn out from the abdominal cavity and placed on the gauze. The exposed uterus was continuously irrigated with sterile 0.9% NaCl solution during the procedure (for layout, see FIGS. 5A, 5B). One embryo was randomly selected for treatment and positioned with the placenta facing up. […] Anesthesia was discontinued and the rat was placed in a cage and closely monitored for at least 48 h. […]"}, "[6]": {"test_system": "uterine horn", "details": "cited from earlier work"}, "[7]": {"details": "subsequent fertility after 5-ALA PDT"}}, "note": "“And” between values parts separate entries of the source, which are not always exact repeats. Identical values can stand only once. “Also recorded” adds a separate entry of the source.", "data": [{"compound": "CN(Cc1cnc2nc(N)nc(N)c2n1)c1ccc(C(=O)N[C@@H](CCC(=O)O)C(=O)O)cc1", "note": "[methotrexate, Methotrexate]", "values": [{"measurement": "success rate of medical therapy of EUP", "setting": "[1]", "value": "70-95%"}]}, {"compound": "Palladium 3^1-oxo-15 -methoxycarbonylmethylrhodobacterio-chlorin-13^1,17^3-di(2-N2-dimethylaminoethyl) amide [PMRDA]", "values": [{"measurement": "fertility following local in vivo placental PDT", "setting": "[2]", "value": "fertility of the rats is preserved"}, {"measurement": "ability to conceive after PDT, parturition and re-mating", "setting": "[2]; in vivo", "value": "all six rats pregnant"}, {"measurement": "litter sizes of second pregnancy", "setting": "[2]; in vivo", "value": "6-11"}, {"measurement": "parturition of the remaining litter after treatment", "setting": "[2]; in vivo", "value": "All six rats achieved normal parturition"}, {"measurement": "pups delivered at parturition after treatment", "setting": "[2]; in vivo", "value": "6 to 11", "unit": "pups"}, {"measurement": "siderophages in endometrium and mesometrium, post PDT uterus", "setting": "[3]; PMRDA with illumination", "value": "milder"}, {"measurement": "siderophages in endometrium and mesometrium, DC uterus", "setting": "[3]; PMRDA without illumination", "value": "highest"}, {"measurement": "necrosis / pathological findings in post-PDT uteri", "setting": "[3]; uteri after parturition, H&E, SMA, pan-cytokeratin, vWF staining", "value": "No necrotic areas were found; also recorded: no pathological findings"}, {"measurement": "placental necrosis, share of placental mass involved", "setting": "[4]; post-PMRDA-PDT placenta", "value": "approximately 70%"}, {"measurement": "histological state of the embryo", "setting": "[4]; post-PMRDA-PDT", "value": "fully necrotic embryo"}, {"measurement": "state of the uterus adjacent to the treated placenta", "setting": "[4]; post-PMRDA-PDT", "value": "appeared viable"}, {"measurement": "pregnancy termination (embryo death rate) following PMRDA-PDT", "setting": "[5]; 50 μg/30 μl intra-placental injection at E14, DLTI 120 sec, 755 nm 100 mW/cm^2 for 300 sec, assessed E16, 11/14 embryos", "value": "~80% and 78.6%"}, {"measurement": "embryo mortality rate, dark control (DC)", "setting": "[5]; placental administration of photosensitizer without illumination, E14, assessed E16, 3/8 embryos", "value": 37.5, "unit": "%"}, {"measurement": "morbidity to the treated pregnant rat", "setting": "[5]; rat, in vivo", "value": "did not result in noticeable morbidity"}]}, {"compound": "NCC(=O)CCC(=O)O", "note": "[5-ALA, 5-aminolevulinic acid]", "values": [{"measurement": "treated animals that did not conceive following PDT", "setting": "[6]; 5-ALA administered E10, examined E17", "value": "one third"}, {"measurement": "fewer implanted embryos in the treated horn", "setting": "[6]; [7]", "value": "~28", "unit": "%"}, {"measurement": "treated animals that developed pregnancies in the treated horn subsequently", "setting": "[6]; [7]", "value": 66.2, "unit": "%"}, {"measurement": "pregnancy outcome in the treated uterine horn", "setting": "[6]; systemic 5-ALA, whole horn illuminated", "value": "loss of all embryos in the treated uterine horn; also recorded: termination of all pregnancies in the treated horn"}]}]}
